Results on 20 molecules are retold here after ChEMBL document CHEMBL2157953, “Identification of aminopyridazine-derived antineuroinflammatory agents effective in an Alzheimer's mouse model” (ACS Med Chem Lett, 2012).

Active and inactive are the calls of the source. The calls are words filed in the database; no cut-off is given here.

Series [1] relates to BV-2. As to the kind of experiment: Antineuroinflammatory activity in mouse BV2 cells assessed as inhibition of LPS-induced IL-1beta production after 16 hrs by ELISA. It is filed as functional, cell-based. The note with it: BV-2, 16 h.
In series [2] the test system is Mus musculus. Kind of series: Antialzheimer activity in Kunming mouse assessed as reversal of amyloid beta (1 to 42)-induced impairments in spartial recognition memory at 2.5 mg/kg, po qd measured on day 3 and 4 by morris water maze test. Also noted: dose 2.5 mg/kg. The series is classed as functional, organism-based.
Series [3] is described as follows: Tmax in rat brain at 2.5 mg/kg, po. Also noted: dose 2.5 mg/kg, route oral. The series is classed as ADME, organism-based.
Series [4] deals with Mus musculus. As to the kind of experiment: Antialzheimer activity in Kunming mouse assessed as reversal of amyloid beta (1 to 42)-induced decrease of swimming percentage of path length at 2.5 mg/kg, po qd measured on day 13 by morris water maze test. The series is classed as functional, organism-based. Also noted: dose 2.5 mg/kg.
Series [5] relates to Mus musculus. As to the kind of experiment: Antialzheimer activity in Kunming mouse assessed as reversal of amyloid beta (1 to 42)-induced decrease of swimming time spent in target quadrant at 2.5 mg/kg, po qd measured on day 13 by morris water maze test. The series is classed as functional, organism-based. Also noted: dose 2.5 mg/kg.
Series [6] is described as follows: Oral bioavailability in rat at 2.5 mg/kg. The series is classed as ADME, organism-based. The following applies: in vivo.
Series [7] relates to Mus musculus. As to the kind of experiment: Antialzheimer activity in Kunming mouse assessed as reversal of amyloid beta (1 to 42)-induced impairments in spartial recognition memory at 0.65 mg/kg, po qd measured on day 3 and 4 by morris water maze test. The series is classed as functional, organism-based. Also noted: dose 0.65 mg/kg.
For series [8], the system named is Mus musculus. Kind of series: Antialzheimer activity in Kunming mouse assessed as reversal of amyloid beta (1 to 42)-induced decrease of swimming percentage of path length at 0.656 mg/kg, po qd measured on day 13 by morris water maze test. It is filed as functional, organism-based. Also noted: dose 0.656 mg/kg.
The subject of series [9] is Mus musculus. As to the kind of experiment: Antialzheimer activity in Kunming mouse assessed as reversal of amyloid beta (1 to 42)-induced decrease of swimming time spent in target quadrant at 0.65 mg/kg, po qd measured on day 13 by morris water maze test. It is filed as functional, organism-based. Also noted: dose 0.65 mg/kg.

One may read the IC50 as the concentration that inhibits the measured activity by half. Consider `Cc1cc(-c2cccc(F)c2)nnc1N1CCN(c2ncccn2)CC1`, for which the IC50 in series [1] stood at 33.5 µM. As for `Cc1cc(C(C)C)nnc1N1CCN(c2ncccn2)CC1`, the IC50 in series [1] is more than 100 µM. On the same count and under the same terms, next, `Cc1cc(-c2ccc(F)cc2)nnc1N1CCN(c2ncccn2)CC1`: 76.3 µM; `Cc1cc(C)c(N2CCN(c3ncccn3)CC2)nn1`: more than 100 µM; `Cc1cc(-c2ccncc2)nnc1N1CCN(c2ncccn2)CC1`: more than 100 µM. Turning to `Cc1ccc(-c2cc(C)c(N3CCN(c4ncccn4)CC3)nn2)cc1`, the IC50 in series [1] amounted to 17.2 µM. For orientation: Tmax means the time from dosing to the highest level. One may read the bioavailability as dose-corrected exposure relative to a reference, in per cent. Regarding `Cc1cc(-c2ccsc2)nnc1N1CCN(c2ncccn2)CC1`, the outcome in series [2], in series [4] and in series [5] was Active. Moreover, the IC50 in series [1] worked out at 2.4 µM. Also, in [3], the Tmax is 19.8 min. In [6], this molecule came in with a bioavailability of 17.4%. As for `Cc1cc(-c2ccc3[nH]ccc3c2)nnc1N1CCN(c2ncccn2)CC1`, in series [1], the IC50 was determined as 85.1 µM.

Turning to `Cc1cc(-c2ccnc3ccccc23)nnc1N1CCN(c2ncccn2)CC1`, the IC50 in series [1] came out at 66.5 µM. Consider `COc1cc2c(cc1OC)C(=O)C(CC1CCN(Cc3ccccc3)CC1)C2` (configuration not stated), for which the result in series [7], in [8] and in series [9] was Active.

Turning to `Cc1cc(-c2ccccc2)nnc1N1CCN(c2ncccn2)CC1`, the IC50 in [1] turned out to be 11.4 µM. The same measure, in the same setting: the same measure for `COc1cccc(-c2cc(C)c(N3CCN(c4ncccn4)CC3)nn2)c1`: 2.6 µM; for `Cc1cc(-c2ccc(C(F)(F)F)cc2)nnc1N1CCN(c2ncccn2)CC1`: 37.4 µM. For `COc1ccc(-c2cc(C)c(N3CCN(c4ncccn4)CC3)nn2)cc1`, the IC50 in [1] worked out at 5.2 µM. Still for that read-out and setting: the same measure for `Cc1cc(-c2cccnc2)nnc1N1CCN(c2ncccn2)CC1`: more than 100 µM; for `Cc1cc(-c2cncnc2)nnc1N1CCN(c2ncccn2)CC1`: more than 100 µM; for `Cc1cc(-c2cc3ccccc3s2)nnc1N1CCN(c2ncccn2)CC1`: 24.9 µM. The same measure, in the same setting: next, `Cc1cc(Cl)nnc1N1CCN(c2ncccn2)CC1`: more than 100 µM; `Cc1ccnnc1N1CCN(c2ncccn2)CC1`: more than 100 µM. For `COc1ncc(-c2cc(C)c(N3CCN(c4ncccn4)CC3)nn2)c(OC)n1`, the IC50 in [1] is more than 100 µM.
